This is an account of results in ChEMBL document CHEMBL4507279, “Data for DCP probe BI-9627” (2021).

Series [1] concerns the target Sigma non-opioid intracellular receptor 1 (Homo sapiens) (UniProt Q99720). The note with it: Compound concentration 10.0 uM.
In series [2] the target is MAP/microtubule affinity-regulating kinase 3 (Homo sapiens) (UniProt P27448). Particulars: Compound concentration 1000.0 nM; call rule not given here.
Series [3] addresses Androgen receptor (Rattus norvegicus) (UniProt P15207). Put plainly: TESTOST/RA Eurofins-Panlabs selectivity data (BI). The note with it: Compound concentration 10.0 uM.
For series [4], the target named is T1, Muscarinic acetylcholine receptor M2 (Homo sapiens) (UniProt P08172).
T1 sequence (whole entry): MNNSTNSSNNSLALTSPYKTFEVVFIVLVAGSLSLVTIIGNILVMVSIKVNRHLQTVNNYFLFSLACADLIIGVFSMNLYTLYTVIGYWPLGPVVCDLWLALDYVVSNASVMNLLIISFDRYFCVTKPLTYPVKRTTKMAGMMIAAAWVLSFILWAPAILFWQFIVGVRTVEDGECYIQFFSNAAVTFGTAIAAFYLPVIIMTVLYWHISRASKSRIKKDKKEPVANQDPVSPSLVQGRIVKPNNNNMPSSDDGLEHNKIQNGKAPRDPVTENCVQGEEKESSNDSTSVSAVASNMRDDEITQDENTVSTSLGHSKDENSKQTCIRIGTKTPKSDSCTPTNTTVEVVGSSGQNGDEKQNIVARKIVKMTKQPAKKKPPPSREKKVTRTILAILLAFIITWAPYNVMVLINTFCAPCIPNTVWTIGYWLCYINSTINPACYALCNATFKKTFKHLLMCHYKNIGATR
As to the kind of experiment: M2/HU Eurofins-Panlabs selectivity data (BI).

In series [5] the target is 5-hydroxytryptamine receptor 2A (Homo sapiens, UniProt P28223). Put plainly: GPCRScan assay: inhibition of 5-HT2A. The arrangement: radioligand conc. used [nm] 1.2 – 2.4, parental cells HEKT.
Series [6] has as its target hERG (voltage-gated inwardly rectifying potassium channel KCNH2) (Homo sapiens, UniProt Q12809). As to the kind of experiment: K+/HERG Eurofins-Panlabs selectivity data (BI). The note with it: compound concentration 10 uM, read-out: % Ctrl.
The target of series [7] is Cysteinyl leukotriene receptor 1 (Homo sapiens) (UniProt Q9Y271). Put plainly: CYSLT1_HS Eurofins-Panlabs selectivity data (BI). Particulars: Compound concentration 10.0 uM.
Series [8] addresses Acetylcholine receptor subunit alpha (Homo sapiens) (UniProt P02708). As to the kind of experiment: NACH/H Eurofins-Panlabs selectivity data (BI). The note with it: Compound concentration 10.0 uM.
Series [9] has as its target 5-hydroxytryptamine receptor 5A (Homo sapiens) (UniProt P47898). The note with it: Compound concentration 10.0 uM.
Series [10] addresses T2, Alpha-1A adrenergic receptor (Homo sapiens) (UniProt P35348).
T2 sequence (whole entry): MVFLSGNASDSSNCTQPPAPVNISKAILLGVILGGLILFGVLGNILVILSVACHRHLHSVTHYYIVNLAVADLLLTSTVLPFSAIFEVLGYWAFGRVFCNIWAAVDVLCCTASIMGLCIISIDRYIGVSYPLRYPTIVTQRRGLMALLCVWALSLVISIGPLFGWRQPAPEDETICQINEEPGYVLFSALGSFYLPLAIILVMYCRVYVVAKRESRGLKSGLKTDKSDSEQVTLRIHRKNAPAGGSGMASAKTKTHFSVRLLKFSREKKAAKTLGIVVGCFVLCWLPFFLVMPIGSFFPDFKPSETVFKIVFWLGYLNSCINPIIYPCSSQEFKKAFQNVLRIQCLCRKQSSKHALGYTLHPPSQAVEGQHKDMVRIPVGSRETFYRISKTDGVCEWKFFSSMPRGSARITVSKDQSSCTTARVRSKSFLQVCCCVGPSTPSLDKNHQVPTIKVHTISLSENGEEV
As to the kind of experiment: ALPHA1A/R Eurofins-Panlabs selectivity data (BI). Particulars: Rattus norvegicus; Compound concentration 10.0 uM.

Series [11] concerns the target T3, Muscarinic acetylcholine receptor M1 (Homo sapiens) (UniProt P11229).
T3 sequence (whole entry): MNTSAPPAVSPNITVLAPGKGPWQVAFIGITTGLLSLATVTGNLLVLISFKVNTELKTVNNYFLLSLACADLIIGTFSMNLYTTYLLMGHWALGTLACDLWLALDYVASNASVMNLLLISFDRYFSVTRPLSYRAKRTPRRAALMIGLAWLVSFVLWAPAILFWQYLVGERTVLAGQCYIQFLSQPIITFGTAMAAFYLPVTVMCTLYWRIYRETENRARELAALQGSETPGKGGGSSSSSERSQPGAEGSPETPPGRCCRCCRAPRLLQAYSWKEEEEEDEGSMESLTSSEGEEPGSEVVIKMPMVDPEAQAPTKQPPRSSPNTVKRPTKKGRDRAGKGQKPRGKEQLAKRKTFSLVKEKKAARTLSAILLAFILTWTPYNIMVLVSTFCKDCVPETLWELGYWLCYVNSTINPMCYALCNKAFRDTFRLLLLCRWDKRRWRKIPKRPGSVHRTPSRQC
As to the kind of experiment: M1/HU Eurofins-Panlabs selectivity data (BI). Particulars: Compound concentration 10.0 uM.

Series [12] addresses Histamine H2 receptor (Homo sapiens) (UniProt P25021). Put plainly: H2/H Eurofins-Panlabs selectivity data (BI). The note with it: Compound concentration 10.0 uM.
For series [13], the target named is Histamine H3 receptor (Homo sapiens) (UniProt Q9Y5N1). The note with it: Compound concentration 10.0 uM.
Series [14] deals with Voltage-dependent N-type calcium channel subunit alpha-1B (Rattus norvegicus) (UniProt Q02294). Put plainly: CA+/N/RA Eurofins-Panlabs selectivity data (BI). Particulars: Compound concentration 10.0 uM.
The target of series [15] is Adenosine receptor A1 (Homo sapiens) (UniProt P30542). As to the kind of experiment: A1/HU Eurofins-Panlabs selectivity data (BI). Particulars: Compound concentration 10.0 uM.
In series [16] the target is T4, Alpha-2A adrenergic receptor (Homo sapiens) (UniProt P08913).
T4 sequence (whole entry): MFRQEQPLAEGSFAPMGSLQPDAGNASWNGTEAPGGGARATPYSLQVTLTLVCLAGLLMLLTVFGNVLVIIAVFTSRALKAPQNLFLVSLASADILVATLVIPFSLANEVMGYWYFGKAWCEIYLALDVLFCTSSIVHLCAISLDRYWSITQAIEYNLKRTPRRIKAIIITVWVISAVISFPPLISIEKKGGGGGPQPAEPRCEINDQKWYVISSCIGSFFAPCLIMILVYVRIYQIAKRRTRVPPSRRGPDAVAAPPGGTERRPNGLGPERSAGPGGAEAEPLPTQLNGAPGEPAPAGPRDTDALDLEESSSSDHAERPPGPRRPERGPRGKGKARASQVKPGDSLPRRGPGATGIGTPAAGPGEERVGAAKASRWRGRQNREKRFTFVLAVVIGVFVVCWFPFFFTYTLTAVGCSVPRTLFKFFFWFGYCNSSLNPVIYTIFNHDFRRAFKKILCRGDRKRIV
As to the kind of experiment: ALPHA2A/H Eurofins-Panlabs selectivity data (BI). The note with it: Compound concentration 10.0 uM.

Series [17] has as its target Beta-2 adrenergic receptor (Homo sapiens) (UniProt P07550). Particulars: Compound concentration 10.0 uM.
The target in series [18] is Melatonin receptor type 1A (Homo sapiens) (UniProt P48039). Particulars: Compound concentration 10.0 uM.
Melatonin receptor type 1A (Homo sapiens), sequence (P48039 whole entry): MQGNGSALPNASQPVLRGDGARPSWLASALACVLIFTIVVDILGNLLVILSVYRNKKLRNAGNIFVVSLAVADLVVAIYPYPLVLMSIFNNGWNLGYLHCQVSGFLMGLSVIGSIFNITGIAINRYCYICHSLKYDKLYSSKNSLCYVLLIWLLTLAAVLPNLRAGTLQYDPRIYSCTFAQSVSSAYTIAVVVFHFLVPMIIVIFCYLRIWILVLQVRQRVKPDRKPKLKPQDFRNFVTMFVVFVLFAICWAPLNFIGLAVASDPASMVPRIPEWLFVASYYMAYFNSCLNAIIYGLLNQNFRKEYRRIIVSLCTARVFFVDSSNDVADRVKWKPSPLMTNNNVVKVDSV

Adenosine receptor A1 (Homo sapiens), sequence (P30542 whole entry): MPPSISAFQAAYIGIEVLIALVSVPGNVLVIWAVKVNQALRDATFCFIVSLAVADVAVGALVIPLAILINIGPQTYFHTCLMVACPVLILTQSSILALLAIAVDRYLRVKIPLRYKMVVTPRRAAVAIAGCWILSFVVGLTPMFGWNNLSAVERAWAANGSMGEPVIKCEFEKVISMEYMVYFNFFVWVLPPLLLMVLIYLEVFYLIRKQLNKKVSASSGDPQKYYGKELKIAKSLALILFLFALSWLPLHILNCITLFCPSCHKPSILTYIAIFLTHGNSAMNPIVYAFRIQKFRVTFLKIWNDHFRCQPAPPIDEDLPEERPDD
5-hydroxytryptamine receptor 2A, sequence (P28223 whole entry): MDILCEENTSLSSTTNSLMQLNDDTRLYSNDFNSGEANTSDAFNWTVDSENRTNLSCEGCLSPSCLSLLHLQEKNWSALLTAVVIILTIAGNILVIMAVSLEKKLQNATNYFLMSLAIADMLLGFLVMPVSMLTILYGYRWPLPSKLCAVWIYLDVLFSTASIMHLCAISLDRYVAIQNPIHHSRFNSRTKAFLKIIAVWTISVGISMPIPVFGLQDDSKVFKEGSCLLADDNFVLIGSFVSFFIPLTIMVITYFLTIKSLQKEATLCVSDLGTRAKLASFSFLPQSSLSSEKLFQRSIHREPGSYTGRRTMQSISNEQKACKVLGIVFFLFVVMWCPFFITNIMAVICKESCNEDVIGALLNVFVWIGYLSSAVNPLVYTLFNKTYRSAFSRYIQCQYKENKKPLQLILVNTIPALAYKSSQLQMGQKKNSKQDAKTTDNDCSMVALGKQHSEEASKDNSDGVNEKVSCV
Histamine H2 receptor (Homo sapiens), sequence (P25021 whole entry): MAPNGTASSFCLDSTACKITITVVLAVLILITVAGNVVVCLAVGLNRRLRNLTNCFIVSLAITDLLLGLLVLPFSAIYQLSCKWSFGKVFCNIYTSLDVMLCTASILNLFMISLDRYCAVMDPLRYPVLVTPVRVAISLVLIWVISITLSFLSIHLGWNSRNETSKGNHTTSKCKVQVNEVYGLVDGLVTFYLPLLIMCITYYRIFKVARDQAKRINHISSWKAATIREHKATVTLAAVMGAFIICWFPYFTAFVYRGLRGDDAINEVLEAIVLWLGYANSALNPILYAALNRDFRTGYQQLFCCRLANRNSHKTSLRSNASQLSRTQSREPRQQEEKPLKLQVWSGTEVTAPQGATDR
Sigma non-opioid intracellular receptor 1 (Homo sapiens), sequence (Q99720 whole entry): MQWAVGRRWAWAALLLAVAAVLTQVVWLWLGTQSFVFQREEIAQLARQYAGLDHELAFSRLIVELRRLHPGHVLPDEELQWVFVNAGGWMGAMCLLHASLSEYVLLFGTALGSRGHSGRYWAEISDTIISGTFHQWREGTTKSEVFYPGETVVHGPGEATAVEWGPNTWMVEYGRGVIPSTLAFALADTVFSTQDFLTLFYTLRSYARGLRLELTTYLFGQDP
MAP/microtubule affinity-regulating kinase 3 (Homo sapiens), sequence (P27448 whole entry, looked up): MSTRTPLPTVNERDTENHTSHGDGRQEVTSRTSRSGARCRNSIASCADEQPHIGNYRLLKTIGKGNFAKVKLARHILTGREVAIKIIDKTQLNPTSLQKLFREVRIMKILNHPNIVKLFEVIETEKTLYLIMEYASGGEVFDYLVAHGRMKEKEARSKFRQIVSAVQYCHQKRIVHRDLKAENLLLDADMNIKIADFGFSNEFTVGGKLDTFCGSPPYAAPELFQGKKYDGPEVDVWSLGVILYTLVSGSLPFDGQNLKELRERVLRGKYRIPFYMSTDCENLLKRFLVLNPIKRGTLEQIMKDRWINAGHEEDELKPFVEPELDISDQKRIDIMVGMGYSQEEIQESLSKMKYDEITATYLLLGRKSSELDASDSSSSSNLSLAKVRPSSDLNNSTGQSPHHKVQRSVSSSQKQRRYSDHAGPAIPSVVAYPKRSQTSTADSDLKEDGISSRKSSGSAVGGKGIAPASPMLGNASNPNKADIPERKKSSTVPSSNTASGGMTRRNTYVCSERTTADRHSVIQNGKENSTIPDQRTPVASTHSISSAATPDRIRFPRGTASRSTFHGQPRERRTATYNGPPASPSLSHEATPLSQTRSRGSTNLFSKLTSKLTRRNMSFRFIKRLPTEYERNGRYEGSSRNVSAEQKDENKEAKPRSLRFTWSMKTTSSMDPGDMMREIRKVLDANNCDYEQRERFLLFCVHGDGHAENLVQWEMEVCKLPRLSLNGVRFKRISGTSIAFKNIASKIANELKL
Beta-2 adrenergic receptor (Homo sapiens), sequence (P07550 whole entry, looked up): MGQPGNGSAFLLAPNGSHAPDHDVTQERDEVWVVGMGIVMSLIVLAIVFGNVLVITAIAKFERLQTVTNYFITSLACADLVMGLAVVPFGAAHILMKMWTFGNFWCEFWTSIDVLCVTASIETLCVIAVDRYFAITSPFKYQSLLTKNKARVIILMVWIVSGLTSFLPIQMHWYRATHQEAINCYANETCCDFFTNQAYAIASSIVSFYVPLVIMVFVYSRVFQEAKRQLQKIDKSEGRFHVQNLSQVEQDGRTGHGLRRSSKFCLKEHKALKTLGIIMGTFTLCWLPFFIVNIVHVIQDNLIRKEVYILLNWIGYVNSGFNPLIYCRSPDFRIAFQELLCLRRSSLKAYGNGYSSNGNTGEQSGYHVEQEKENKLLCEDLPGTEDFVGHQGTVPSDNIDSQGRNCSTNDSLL
Acetylcholine receptor subunit alpha (Homo sapiens), sequence (P02708 whole entry): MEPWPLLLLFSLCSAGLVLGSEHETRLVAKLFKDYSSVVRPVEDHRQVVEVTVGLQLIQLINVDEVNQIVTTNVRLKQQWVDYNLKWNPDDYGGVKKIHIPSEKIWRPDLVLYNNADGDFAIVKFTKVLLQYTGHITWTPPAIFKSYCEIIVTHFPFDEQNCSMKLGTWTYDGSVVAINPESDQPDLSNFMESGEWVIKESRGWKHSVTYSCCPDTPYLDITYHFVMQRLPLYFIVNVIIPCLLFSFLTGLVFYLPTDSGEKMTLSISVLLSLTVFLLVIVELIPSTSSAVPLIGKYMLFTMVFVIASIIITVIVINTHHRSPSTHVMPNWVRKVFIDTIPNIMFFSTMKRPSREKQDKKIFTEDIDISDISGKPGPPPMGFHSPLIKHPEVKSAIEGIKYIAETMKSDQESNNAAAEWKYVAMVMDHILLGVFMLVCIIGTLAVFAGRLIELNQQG
Androgen receptor (Rattus norvegicus), sequence (P15207 whole entry S389L): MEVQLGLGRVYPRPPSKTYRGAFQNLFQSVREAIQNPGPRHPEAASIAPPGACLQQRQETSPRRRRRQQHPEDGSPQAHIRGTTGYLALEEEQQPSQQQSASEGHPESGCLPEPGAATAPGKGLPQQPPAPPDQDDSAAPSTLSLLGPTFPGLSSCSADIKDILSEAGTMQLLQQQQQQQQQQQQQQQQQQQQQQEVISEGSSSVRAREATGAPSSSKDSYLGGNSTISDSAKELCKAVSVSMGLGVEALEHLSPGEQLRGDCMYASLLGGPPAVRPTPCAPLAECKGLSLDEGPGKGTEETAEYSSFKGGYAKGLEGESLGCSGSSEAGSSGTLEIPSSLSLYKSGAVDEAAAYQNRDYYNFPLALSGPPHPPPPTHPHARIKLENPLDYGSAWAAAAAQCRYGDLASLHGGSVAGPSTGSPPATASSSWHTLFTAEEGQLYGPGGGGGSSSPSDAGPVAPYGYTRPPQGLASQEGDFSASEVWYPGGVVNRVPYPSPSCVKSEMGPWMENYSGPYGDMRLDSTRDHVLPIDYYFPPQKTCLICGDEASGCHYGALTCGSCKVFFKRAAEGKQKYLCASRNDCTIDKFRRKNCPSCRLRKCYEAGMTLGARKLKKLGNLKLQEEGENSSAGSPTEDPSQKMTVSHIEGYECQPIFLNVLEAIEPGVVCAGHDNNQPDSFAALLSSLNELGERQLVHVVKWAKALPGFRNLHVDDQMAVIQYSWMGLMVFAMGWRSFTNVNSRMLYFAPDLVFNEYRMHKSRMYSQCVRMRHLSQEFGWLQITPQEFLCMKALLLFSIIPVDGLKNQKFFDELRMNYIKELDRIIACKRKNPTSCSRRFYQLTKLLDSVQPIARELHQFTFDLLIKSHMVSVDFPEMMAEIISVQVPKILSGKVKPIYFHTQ
Cysteinyl leukotriene receptor 1 (Homo sapiens), sequence (Q9Y271 whole entry): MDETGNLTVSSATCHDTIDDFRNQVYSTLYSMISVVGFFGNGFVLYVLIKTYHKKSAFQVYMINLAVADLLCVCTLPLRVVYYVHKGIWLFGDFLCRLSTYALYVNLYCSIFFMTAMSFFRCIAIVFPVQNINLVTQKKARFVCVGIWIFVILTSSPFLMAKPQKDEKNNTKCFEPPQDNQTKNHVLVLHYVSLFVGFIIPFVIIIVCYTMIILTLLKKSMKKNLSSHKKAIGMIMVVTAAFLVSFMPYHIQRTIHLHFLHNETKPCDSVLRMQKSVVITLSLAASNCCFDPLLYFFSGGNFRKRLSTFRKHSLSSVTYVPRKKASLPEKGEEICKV
5-hydroxytryptamine receptor 5A (Homo sapiens), sequence (P47898 whole entry): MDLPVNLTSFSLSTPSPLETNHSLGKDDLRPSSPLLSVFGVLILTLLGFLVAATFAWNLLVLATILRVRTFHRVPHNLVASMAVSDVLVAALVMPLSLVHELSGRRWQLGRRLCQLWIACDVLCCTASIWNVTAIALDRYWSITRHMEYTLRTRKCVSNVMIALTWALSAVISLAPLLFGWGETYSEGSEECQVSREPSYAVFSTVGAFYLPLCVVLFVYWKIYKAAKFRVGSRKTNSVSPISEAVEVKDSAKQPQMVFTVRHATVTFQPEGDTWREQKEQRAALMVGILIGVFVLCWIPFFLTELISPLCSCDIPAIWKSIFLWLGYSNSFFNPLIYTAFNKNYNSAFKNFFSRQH

One may read the inhibition as the change of the read-out against control, counted positive when it falls. By residual activity is commonly meant the signal under treatment as a percentage of the control signal. Consider `CC(=O)N1CCC(c2ccc(C(=O)NC3=NCCN3)cc2C(F)(F)F)CC1` [BI 0054], for which, in series [1], the inhibition is -8.45%. In addition, the residual activity in [2] is 100%.

Usually Ki stands for the dissociation constant of the complex between target and ligand, obtained from inhibition or displacement. With `CC(=O)N1CCC(c2ccc(C(=O)NC(=N)N)cc2C(F)(F)F)CC1` [BI 9627], the residual activity was 95% in series [3]; 102% in series [4] (Compound concentration 0.03 uM); 108% in series [4] (Compound concentration 0.1 uM); 71% in [4] (Compound concentration 0.3 uM); 70% in series [4] (Compound concentration 1.0 uM); 48% in series [4] (Compound concentration 3.0 uM). The residual activity in series [4] (Compound concentration 10.0 uM) is 33%; in [4] (Compound concentration 30.0 uM), 11%; in series [7] it was 95%; in series [8], 102%; in series [10], 86%; in series [11], 61%. Moreover, the residual activity was 103% in [12]; 98% in series [14]; 58% in series [15]; 93% in series [16]; 96% in series [18]. The inhibition constant (Ki) in series [5] was found to be 10 µM. Moreover, the activity at 10 µM in [6] was 105% (not active). The inhibition is -4.89% in [9], -6.54% in [13] and -9.75% in [17].
